How the values were obtained:
Stomoxys calcitrans = assay: Animal systemic insecticidal activity, flies fed on mice dosed by gavage (Example 3); type: in vivo, Stomoxys calcitrans (stable flies) fed on mice; conditions: 18 hours feeding, mortality at 24 hours
Method: To determine the effectiveness of the compounds of the invention as animal systemic insecticidal agents, test compounds are mixed in 10% acetone-90% sesame oil and administered by gavage to mice each at 25, 100 and/or 400 mg/kg of animal body weight.
Adult, one day old, unfed flies Stomoxys calcitrans are then exposed to the mice for 18 hours to permit them to feed on said mice. Mortality counts are made at 24 hours and data obtained are reported below as percent control of stable flies.

Rhipicephalus sanguineus = assay: Systemic ixodicidal activity, daily oral dosing of tick-infested guinea pigs (Example 1); type: in vivo
Description: (§1) Albino guinea pigs are housed individually and fed guinea pig chow and water ad libitum. One leaf of cabbage per day is also given to each guinea pig.
The diet employed in these tests is as follows:
Crude protein not less than 18.0%
Crude fat not less than 4.0%
Crude fiber not more than 16.0%
Added minerals not more than 3.5%
and consists of the following ingredients: Ground wheat, ground yellow corn, dried skimmed milk, soybean meal, dehydrated alfalfa meal, cane molasses, wheat middlings, animal fat preserved with BHA, vitamin B12 supplement; riboflavin supplement, cholin chloride, calcium pantothenate, thiamin, niacin, folic acid, ascorbic acid, vitamin A supplement, D activated sterol (source of Vitamin D3), methionine hydroxy analogue calcium, pyridoxine hydrochloride, vitamin E supplement, dicalcium phosphate, calcium carbonate, iodized salt, copper oxide sulfate, iron sulfate, iron oxide, manganous oxide, cobalt carbonate, zinc oxide.
(§2) To the shaved back of each guinea pig, a capsule made from a 2 inch spud gasket, with the base ground down to provide greater flexibility, is glued using 3M adhesive no. 8001. Five male and five female adult Rhipicephalus sanguineus ticks are placed inside the capsule and allowed to attach to the guinea pig. A gauze material is fastened over the top of the gasket to prevent the ticks from escaping.
(§3) The guinea pigs are given a daily oral dose by gelatin capsule of either 400 or 100 mg per kilogram body weight of the test compound. […]

Dermacentor variabilis = assay: Systemic ixodicidal activity, daily oral dosing of tick-infested guinea pigs (Example 2); type: in vivo
[1] = tested on: Rhipicephalus sanguineus; Dermacentor variabilis; assay: Systemic ixodicidal activity by the methods of the Examples, stated for both tick species together; type: in vivo; conditions: trans and cis; no figures given
Description: as §1, §2, §3

[2] = Rhipicephalus sanguineus, in Cavia porcellus, po, read-out: % Tick Mortality

Row | Structure (SMILES) | % Control of Stable Flies (Stomoxys calcitrans; 25 mg/kg by gavage) [%] | % Control of Stable Flies (Stomoxys calcitrans; 100 mg/kg by gavage) [%] | % Control of Stable Flies (Stomoxys calcitrans; 400 mg/kg by gavage) [%] | also measured
1 | CC1(C)C(C=C(Cl)Cl)C1C(=O)OC(C#N)c1cccc(Oc2ccccc2)c1 (stereo not shown) | 63 | 80 | 96 | –
2 | CC(C)=CC1C(C(=O)OC(C#N)c2cccc(Oc3ccccc3)c2)C1(C)C (stereo not shown) | 30 | 80 | 100 | –
3 | CC1(C)C(C=C(Cl)Cl)C1C(=O)OCc1cccc(Oc2ccccc2)c1 (mixture of isomers) [Cyclopropanecarboxylic acid, 3-(2,2-dichlorovinyl)-2,2-dimethyl-m-phenoxybenzyl ester] | – | – | – | mortality at 100 mg/kg (Rhipicephalus sanguineus; [2]): 80%; mortality at 400 mg/kg (Rhipicephalus sanguineus; [2]): 100%; time after initial treatment during which ticks do not appear to be affected (then moribund and die shortly thereafter) (Rhipicephalus sanguineus; daily oral dose 400 or 100 mg/kg, guinea pigs, slight color changes and some reduction in size excepted): about 3 days
4 | CC1(C)C(C=C(Cl)Cl)C1C(=O)OCc1cccc(Oc2ccccc2)c1 (stereo not shown) [Cyclopropanecarboxylic acid, 3-(2,2-dichlorovinyl)-2,2-dimethyl-, m-phenoxybenzyl ester] | – | – | – | susceptibility of ticks to the test compound (Dermacentor variabilis; Dermacentor variabilis, compared with Example 1 (Rhipicephalus sanguineus)): somewhat less susceptible; mortality at 100 mg/kg (Dermacentor variabilis; Dermacentor variabilis, in Cavia porcellus, daily oral dose 100 mg/kg, guinea pigs): 0%; mortality at 400 mg/kg (Dermacentor variabilis; Dermacentor variabilis, in Cavia porcellus, daily oral dose 400 mg/kg, guinea pigs): 80%; time after which ticks become moribund and die shortly thereafter (Dermacentor variabilis; method of Example 1, daily oral dose, guinea pigs): about 5 days
5 | CC(C)=CC1C(C(=O)OCc2cccc(Oc3ccccc3)c2)C1(C)C (stereo not shown) [cyclopropanecarboxylic acid, 2,2-dimethyl-3-(2-methylpropenyl)-m-phenoxybenzyl ester] | – | – | – | ixodicidal results compared with those in the Examples [1]: Results comparable to those in the Examples
6 | CC1(C)C(C=C(Cl)Cl)C1C(=O)OCc1cccc(Oc2ccccc2)c1 (stereo not shown) [drawing 8] | 36 | 100 | – | –
